# Measurements: US20080081781A1, “Methods and compositions for the treatment of metabolic syndrome” (priority 2004, published 2008)
# Legend:
# [1] = in vitro; type: in vitro ADME; settings: rabbit
# Method: The rabbit blood protein binding rate was measured by in vitro dialysis at a rate of 38±3% (XD±S, n=6).
# [2] = system: rats; assay: Long term toxicity in rats; type: in vivo, rat; settings: 300 mg/kg orally for 182 days
# Method: For long term toxicity determination, rats were administered 300 mg/kg of berberine orally for 182 days.
# [3] = system: InsR; assay: InsR expression in Bel-7402 cells; type: cell-based, human; settings: Bel-7402 compared with HepG2
# Text: The effect of berberine on InsR was further confirmed in another hepatoma cell line, Bel-7402 […] (FIG. 18). […] The expression of PPAR-r mRNA in liver cells was not changed by berberine (data not shown).
# [4] = system: InsR; assay: InsR expression on peripheral blood lymphocytes of patients (flow cytometry); type: in vivo, human; settings: patients after two months of berberine
# Text: Peripheral blood lymphocytes (PBL) were collected for InsR expression analysis. InsR protein expressed on the surface of peripheral blood lymphocytes were stained with monoclonal antibody against human insulin receptor (Pharmagen, San Diego, Calif.) and analyzed in a flow cytometer (BD and Company, San Jose, Calif.)
# [5] = in vivo; settings: beagle, dog, iv, 100 mg/kg
# Method: Four beagles were injected intravenously with 100 mg/kg of berberine. Using a two compartment model, the pharmacokinetic parameter estimates were as follows: […]
# [6] = system: LDLR mRNA; assay: LDLR mRNA levels in Bel-7402 cells (quantitative RT-PCR); type: cell-based, human
# Method: Bel-7402 cells were treated with 0, 0.5, 1, 2.5, 5, μg/ml of berberine or 2.5, 7.5 and 15 μg/ml of berberine sulfate. The cells were then centrifuged and washed and LDLR mRNA was extracted. LDLR mRNA levels were then measured using scan quantitative RT-PCR, (FIGS. 3 A and B).
# [7] = system: patients with metabolic syndrome; assay: Berberine in patients with metabolic syndrome (Table 10); type: in vivo, human; settings: for Blood Pressure / Blood Cholesterol / Blood Insulin / Blood Triglyceride / FBG (fasting blood glucose): patients with metabolic syndrome (n = 28); for Blood Cholesterol / Blood Insulin / Blood Triglyceride / FBG (fasting blood glucose): means ± SEs
# Text: Twenty-eight patients 28 (male/female, 17/11; age, 57±8 y) were diagnosed as having metabolic syndrome if they met three or more of the following criteria: fasting blood glucose>7 mmol/L, serum triglyceride>1.7 mmol/L, fasting blood insulin>13 mmcU/mL, blood pressure>135/85 and/or BMI>23. (Eckel, Lancet 365 (9468), 1415-28 (2005); Executive Summary, JAMA 285, 2486-2497 (2001); Balkau, Diabet. Med. 16, 442-443 (1999)) The patients were enrolled in this study at the Nanjing First Hospital, Nanjing, China. The patients were requested to end previous medications or therapies for at least two weeks prior to the beginning of the study.
# The patients were then given 1 gram of berberine per day, orally for two months. Blood samples were taken both before and after two months of berberine treatment. Fasting blood levels of glucose, LDL-c, cholesterol, HDL-c, triglyceride and blood insulin were measured using standard methods routinely applied in hospitals. Liver and kidney functions were also monitored in the patients.
# [8] = system: PKC; assay: Cellular PKC activity in HepG2 cells (PepTag assay); type: cell-based, human
# Method: To determine whether berberine directly activates PKC, pGL3-1.5kIRP transfected HepG2 cells were either not treated, treated with 0.2 μM of calphostin C, 5 μg/ml of berberine or 0.5 μM of PKC activator phorbol-12-myristate-13-acetate (PMA) (Gandino, Oncogene, 5(%), 721-725 (1990) or combinations thereof for eight hours. The activity of total PKC in the control and berberine treated cells was assessed by PKC activity assay.
# Cellular PKC activity was analyzed using the PepTag® Assay for Non-Radioactive Detection of Protein Kinase-C or cAMP-Dependent Protein Kinase kit (Promega) according to the protocol. Briefly, after homogenization and partial purification, 10 μl of sample protein was mixed with 5 μl of PepTag® Cl peptide (specific substrate of PKC), 5 μl of reaction buffer and 5 μl of PKC activator solution in a 25 μl reaction system. The reactions were performed at 30° C. for 30 minutes. Then, the samples were loaded onto a 0.8% agarose gel. […] They were transferred to a 96-well plate and quantified using densitometry according to the supplier's protocol. The catalytic activity of total PKC of a specific sample was expressed as pmol/min/mg, representing the number of picomoles of phosphate transferred to the substrate per minute per milligram of proteins of the sample.
# [9] = After BBR treatment 1 g/day, Bid, 2 months
structure (smiles),measurement,setting,value
COc1ccc2cc3[n+](cc2c1OC)CCc1cc2c(cc1-3)OCO2 [berberine],fraction unbound,[1],0.62
same,"long term toxicity: blood tests, blood biochemistry, urine analysis, histopathology",[2],No abnormalities were found
same,InsR expression,[3],identical upregulating effect
same,% of PBL expressing InsR on the surface,[4],significantly increased
same,AUC,[5],1980 ± 1140 ng·h/mL
same,clearance,[5],1010 mL/min
same,half-life,[5],12.6 ± 8.83 h
same,increase of LDLR mRNA expression,[6]; 5 μg/ml,2.3 fold
same,"LDLR mRNA expression, dose dependence","[6]; berberine 0.5-5 μg/ml, berberine sulfate 2.5, 7.5, 15 μg/ml",increased LDLR mRNA expression in a dose dependent fashion
same,fasting blood glucose after treatment,"[7]; 1 gram per day orally, two months, Mean ±SE, before 10.7±0.56",8.0 ± 0.45 mmol/L
same,cholesterol after treatment,"[7]; 1 gram per day orally, two months, before 6.1±±0.11",4.7 ± 0.16 mmol/L
same,blood pressure after treatment,"[7]; 1 gram per day orally, two months, before 156/86",133/79
same,Blood Pressure,[7]; [9],133/79
same,Blood Cholesterol,[7]; [9],4.7 ± 0.16 mmol/L
same,Blood Insulin,[7]; [9],12.1 ± 1.35 mlU/L
same,Blood Triglyceride,[7]; [9],1.47 ± 0.14 mmol/L
same,FBG (fasting blood glucose),[7]; [9],8.0 ± 0.45 mmol/L
same,Blood Pressure,[7]; Before BBR treatment,156/86
same,Blood Cholesterol,[7]; Before BBR treatment,6.1 ± 0.11 mmol/L
same,Blood Insulin,[7]; Before BBR treatment,17 ± 2.15 mlU/L
same,Blood Triglyceride,[7]; Before BBR treatment,2.0 ± 0.22 mmol/L
same,FBG (fasting blood glucose),[7]; Before BBR treatment,10.7 ± 0.56 mmol/L
same,time at which elevation of PKC activity was first observed,[8]; after berberine treatment,0.5 h
same,PKC activity in liver cells,[8]; time-dependent,increased
